In patent US10111854B2, “Synthesis and use of amine-containing flavonoids as potent anti-leishmanial agents” (The Hong Kong Polytechnic University, priority 2014, dated 2018):

Columns and labels:
[1] = tested on: RAW264.7 cells; assay: Reactive oxygen species (ROS) level, DCFDA, RAW264.7; format: cell-based, murine; conditions: for ROS induction in macrophages: RAW264.7
Summary of the method: (§1)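 RAW264.7 macrophages or L. amazonensis promastigotes pre-loaded 1 h with 10 μM DCFDA (37 °C and 27 °C respectively), washed, then exposed to compounds (10 or 30 μM in macrophages; 30 μM in promastigotes). DCF fluorescence (ex 485 nm) read at 2–72 h, background from unstained cells subtracted.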

[2] = tested on: L. donovani HU3 promastigotes; assay: Anti-promastigote activity (MTS assay), L. donovani HU3; format: cell-based; conditions: Leishmania donovani, 72 hours
Summary of the method: (§2)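 Promastigotes (1×10^5 per well) in Schneider's medium pH 6.9 with 10% FBS, exposed to serial compound concentrations for 72 h at 27 °C. Viability by MTS/PMS reduction over 4 h, OD 490 nm; IC50 derived.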

[3] = tested on: L. donovani HU3 amastigotes; assay: Anti-amastigote activity in infected PEM, L. donovani HU3; format: cell-based; conditions: for Selective index (a)/(b): IC50 RAW264.7 over IC50 L. donovani HU3 amastigotes; for IC50: Leishmania donovani, 72 h, infected PEM, 3 days, Giemsa, SSG-sensitive
Summary of the method: (§3)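 Mouse peritoneal elicited macrophages were infected with late-log promastigotes (20:1, overnight or 24 hr, 37° C). Infected cells were then exposed to compound for 72 hours at 37° C. Giemsa-stained amastigotes per 100 macrophages, plus percentage of infected macrophages, were counted, and IC50 values were derived.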

[4] = tested on: L. amazonensis LV78 amastigotes; assay: Anti-amastigote activity in infected PEM, L. amazonensis LV78; format: cell-based; conditions: for Selective index (a)/(b): IC50 RAW264.7 over IC50 L. amazonensis LV78 amastigotes; for IC50: Leishmania amazonensis, 72 h, infected PEM, 3 days, Giemsa
Summary of the method: as §3

[5] = Cytotoxicity, peritoneal elicited macrophages (PEM); format: cell-based, mouse; conditions: mouse, Cytotoxicity IC50, PEM
[6] = tested on: L. donovani Ld39 amastigotes (SSG-resistant); assay: Anti-amastigote activity in infected PEM, L. donovani Ld39; format: cell-based; conditions: for Selective index (a)/(c): IC50 RAW264.7 over IC50 L. donovani Ld39 amastigotes; for IC50: Leishmania donovani, 72 h, infected PEM, 3 days, Giemsa, SSG-resistant
Summary of the method: as §3

[7] = tested on: L. amazonensis LV78 promastigotes; assay: Reactive oxygen species (ROS) level, DCFDA, promastigotes; format: cell-based; conditions: 30 μM
Summary of the method: as §1

[8] = tested on: L. donovani Ld39 promastigotes; assay: Anti-promastigote activity (MTS assay), L. donovani Ld39; format: cell-based; conditions: Leishmania donovani, 72 hours
Summary of the method: as §2

[9] = Cytotoxicity, L929 fibroblasts; format: cell-based, mouse; conditions: mouse
Method: IC50 values of known antileishmanials and the amine-containing flavonoid monomers of the present invention to promastigotes (L. amazonensis LV78, L major FV1, L. donovani HU3, L. donovani 39), macrophages (Raw 264.7 and PEM) and mouse fibroblast (L929) were determined. The anti-promastigotes activities and cytotoxicity of the amine-containing flavonoid monomers of the invention are shown in Table 1.

Row | SMILES | RAW264.7 ROS Level, Relative fold (RF) ([1]; 10 μM, 2 hr) | RAW264.7 ROS Level, Relative fold (RF) ([1]; 10 μM, 4 hr) | RAW264.7 ROS Level, Relative fold (RF) ([1]; 10 μM, 6 hr) | RAW264.7 ROS Level, Relative fold (RF) ([1]; 10 μM, 8 hr) | RAW264.7 ROS Level, Relative fold (RF) ([1]; 10 μM, 20 hr) | ROS induction in macrophages ([1]; 10 μM) | RAW264.7 ROS Level, Relative fold (RF) ([1]; 30 μM, 2 hr) | RAW264.7 ROS Level, Relative fold (RF) ([1]; 30 μM, 4 hr) | RAW264.7 ROS Level, Relative fold (RF) ([1]; 30 μM, 6 hr) | RAW264.7 ROS Level, Relative fold (RF) ([1]; 30 μM, 20 hr) | RAW264.7 ROS Level, Relative fold (RF) ([1]; 30 μM, 46 hr) | Selective index (a)/(b) [3] | IC50 [3] | Selective index (a)/(b) [4] | IC50 [4] | IC50 [5] | Selective index (a)/(c) [6] | IC50 [6] | L. amazon LV78 promastigote ROS Level, Relative fold (RF) ([7]; 2 hr) | L. amazon LV78 promastigote ROS Level, Relative fold (RF) ([7]; 4 hr) | further results
1 | O=c1cc(-c2ccc(OCCOCCN(Cc3ccccn3)Cc3ccccn3)cc2)oc2ccccc12 [FM09, 2-(4-(2-(2-(bis(pyridin-2-ylmethyl)amino)ethoxy)ethoxy)phenyl)-4H-chromen-4-one] | 1.1 fold | 1.1 fold | 1.0 fold | 1.0 fold | 1.1 fold | No ROS induction | 1.3 fold | 1.4 fold | 1.3 fold | 1.4 fold | 2.1 fold | 47.3 | 0.4 µM | 63 | 0.3 µM | 22 µM | >51.1 | < 0.37 µM | 2.0 fold | 2.1 fold | IC50 [2]: 0.5 ± 0.2 µM; L. amazon LV78 promastigote ROS Level, Relative fold (RF) ([7]; 6 hr): 2.3 fold; L. amazon LV78 promastigote ROS Level, Relative fold (RF) ([7]; 20 hr): 3.2 fold; L. amazon LV78 promastigote ROS Level, Relative fold (RF) ([7]; 46 hr): 4.3 fold; L. amazon LV78 promastigote ROS Level, Relative fold (RF) ([7]; 72 hr): 6.2 fold; IC50 [8]: 0.5 ± 0.1 µM; IC50 [9]: > 33 µM
2 | O=c1cc(-c2ccc(OCCOCCN(CCOCCOc3ccc(-c4cc(=O)c5ccccc5o4)cc3)Cc3ccncc3)cc2)oc2ccccc12 [compound 39] | 0.9 fold | 0.9 fold | 0.9 fold | 0.8 fold | 0.9 fold | No ROS induction | 1.3 fold | 1.4 fold | 1.3 fold | 1.3 fold | 1.4 fold | >500 | 0.2 ± 0.06 µM | 232.6 | 0.43 µM | > 100 µM | 47.6 | 0.21 ± 0.06 µM | 1.3 fold | 1.3 fold | L. amazon LV78 promastigote ROS Level, Relative fold (RF) ([7]; 6 hr): 1.3 fold; L. amazon LV78 promastigote ROS Level, Relative fold (RF) ([7]; 20 hr): 1.6 fold; L. amazon LV78 promastigote ROS Level, Relative fold (RF) ([7]; 46 hr): 1.4 fold; L. amazon LV78 promastigote ROS Level, Relative fold (RF) ([7]; 72 hr): 1.6 fold; IC50 [8]: 0.21 ± 0.06 µM; IC50 [9]: 26.4 µM
